From patent publication US5021411A, “Imidazodiazepine derivatives” (Hoffmann-La Roche Inc., priority 1988, dated 1991)

Biological target: central benzodiazepine receptors (specific benzodiazepine receptors in the cerebral cortex)
Assay: Inhibition of the specific binding of tritiated diazepam at the specific benzodiazepine receptors in the cerebral cortex (affinity to central benzodiazepine receptors)
Settings: read-out: Affinity to benzodiazepine receptors IC 50
Description: The affinity of compounds of formula I to the central benzodiazepine receptors has been determined according to the method described in Life Science 20, 2101-2110 (1977) and Science 198, 849-851 (1977). According to this method, the inhibition of the binding of tritiated diazepam at the specific benzodiazepine receptors in the cerebral cortex by the respective test substances is ascertained. The IC50 ("50% inhibiting concentration") is that concentration of the respective test substance which brings about a 50 percent inhibition of the specific binding of the tritiated diazepam at the specific benzodiazepine receptors in the cerebral cortex.

SMILES	IC50 [nM]
CC(=O)OCC#Cc1ncn2c1CN(C)C(=O)c1c(Cl)cccc1-2 [B, 3-(7-chloro-5,6-dihydro-5-methyl-6-oxo-4H-imidazo[1,5-a][1,4]benzodiazepin-3-yl)-2-propynyl acetate]	2.6
C/C(C#Cc1ncn2c1CN(C)C(=O)c1c(Cl)cccc1-2)=C/CO [D, 7-chloro-4,5-dihydro-3-[(Z)-5-hydroxy-3-methyl-3-penten-1-ynyl]-5-methyl-6H-imidazo[1,5-a][1,4]-benzodiazepin-6-one]	1.4
C/C(C#Cc1ncn2c1CN(C)C(=O)c1c(Cl)cccc1-2)=C\CO [F, 7-chloro-4,5-dihydro-3-[(E)-5-hydroxy-3-methyl-3-penten-1-ynyl]-5-methyl-6H-imidazo[1,5-a][1,4]-benzodiazepin-6-one]	2.2
CN1Cc2c(C#CCOCC3CC3)ncn2-c2cccc(Cl)c2C1=O [A, 7-Chloro-3-[3-(cyclopropylmethoxy)-1-propynyl]-4,5-dihydro-5-methyl-6H-imidazo[1,5-a][1,4]benzodiazepin-6-one]	1.4
CN1Cc2c(C#CC(C)(C)OCC3CC3)ncn2-c2cccc(Cl)c2C1=O [C, 7-chloro-3-[3-(cyclopropylmethoxy)-3-methyl-1-butynyl]-4,5-dihydro-5-methyl-6H-imidazo[1,5-a][1,4]benzodiazepin-6-one]	5
C=CC(C)(O)C#Cc1ncn2c1CN(C)C(=O)c1c(Cl)cccc1-2 (stereo not drawn) [E, 7-chloro-4,5-dihydro-3-(3-hydroxy-3-methyl-4-penten-1-ynyl)-5-methyl-6H-imidazo[1,5-a][1,4]benzodiazepin-6-one]	3.7
